Strand notation (5' to 3'): a small letter for the sugar, then the base; units joined by * are phosphorothioate-linked, units joined directly phosphodiester-linked; [ ] holds rarer units or linkages, { } end groups; capitals alone tell only the bases. d = 2'-deoxy (DNA); r = 2'-OH (RNA)
Tests used:
GPC2 mRNA [1] = assay: GPC2 mRNA knockdown in multiple cancer cell lines, 96 hour (Example 3); assay type: cell-based, human; settings: 96 hour incubation
Method: siRNAs 1-5 from Table 7 were diluted to 40 nM in OptiMEM media and mixed in a 1:3 ratio (weight by volume) with RNAiMAX. This was incubated for 15 minutes at room temperature and dispensed onto cells plated in a 6 well tissue culture plate. Total RNA samples were collected at either 72 hours post transfection to compare knockdown efficiency (FIG. 2A), or at 24, 48, 72 or 96 hours post transfection to determine the extent of GPC2 mRNA knockdown over time (FIG. 2B). Expression levels of mRNA of GPC2 were measured in these samples using primers specific for GPC2 obtained commercially from Thermofisher (Carlsbad, Calif.) and standard qPCR technique.
GPC2 mRNA knockdown and changes in cell viability were assessed in multiple cancer cell lines. Cells were transfected with either a scrambled control siRNA or with GPC2 siRNA sequence 3 or sequence 5 from Table 7 using the RNAiMAX Lipofectamine kit (Invitrogen, Carlsbad, Calif.) as previously described in Example 2, either in 96 well format (for viability assays) or 6 well format (for knockdown assessment). Following a 96 hour incubation period, cells were washed and the viability measurement was assessed using Cell Titer Glo 2.0. Total RNA was isolated from the 6 well plate samples to determine knockdown efficiency.

GPC2 mRNA [2] = assay: GPC2 mRNA knockdown in cell lines of the cisplatin experiment (Example 5); assay type: cell-based, human
Method: (§1) GPC2 mRNA was reduced using the indicated siRNAs and changes in cell viability were assessed in multiple cancer cell lines, in combination with Cisplatin treatment. Cells were transfected with either a scrambled control siRNA or with GPC2 siRNA sequences 3 or 5 from Table 7 using the RNAiMAX Lipofectamine kit (Invitrogen, Carlsbad, Calif.), as previously described, in either in 96 well (for viability assays) or 6 well format (for total RNA). Cisplatin was added at increasing concentrations (0 to 30 uM) to transfected cells at 24 hours post transfection. Following a 72 hour incubation period, cell viability was measured using Cell Titer Glo 2.0. Total RNA samples were also isolated to measure knockdown efficiency.

KELLY cells [3] = assay: Cisplatin IC50 in siRNA-transfected cells, Cell Titer Glo 2.0 viability (Example 5); assay type: cell-based; settings: KELLY cells transfected with the labelled siRNA; cisplatin added 24 hours post transfection, 72 hour incubation
Method: as §1

RH30 cells = assay: as above; assay type: cell-based
Method: as §1

RH41 cells = assay: as above; assay type: cell-based; settings: RH41 cells transfected with the labelled siRNA; cisplatin added 24 hours post transfection, 72 hour incubation
Method: as §1

SK-N-BE2 cells = assay: as above; assay type: cell-based; settings: SK-N-BE2 cells transfected with the labelled siRNA; cisplatin added 24 hours post transfection, 72 hour incubation
Method: as §1

SKNAS cells [4] = assay: as above; assay type: cell-based
Method: as §1

TC32 cells = assay: as above; assay type: cell-based
Method: as §1

TC71 cells = assay: as above; assay type: cell-based
Method: as §1

CHLA-136 cells = assay: Etoposide IC50 in siRNA-transfected cells, Cell Titer Glo 2.0 viability (Example 9); assay type: cell-based
Method: (§2) GPC2 mRNA expression was reduced and changes in cell viability were assessed in multiple neuroblastoma cell lines. Cells were transfected with either a control siRNA or with GPC2 siRNA sequences 3, 5 or 7 from Table 7 using the RNAiMAX Lipofectamine kit (Invitrogen, Carlsbad, Calif.) as previously described in 96 wells for viability assays. Etoposide was added at increasing concentrations (0-15 uM) to transfected cells at 24 hours post transfection. Following a 72 hour incubation period, viability measurement were made using Cell Titer Glo 2.0.

CHLA-172 cells = assay: as above; assay type: cell-based
Method: as §2

KELLY cells [5] = assay: as above; assay type: cell-based
Method: as §2

SKNAS cells [6] = assay: as above; assay type: cell-based
Method: as §2

GPC2 protein = GPC2 protein expression by flow cytometry of immunostained cells after siRNA transfection; assay type: cell-based, human
Method: The extent of GPC2 mRNA reduction (knockdown) and corresponding protein level expression changes were assessed in three neuroblastoma cell lines following siRNA knockdown of GPC2. The CHP212 neuroblastoma cell line (FIG. 5A and FIG. 5D), the SH-SY5Y neuroblastoma cell line (FIG. 5B and FIG. 5E) and the CHLA90 neuroblastoma cell line (FIG. 5C and FIG. 5F) were transfected with GPC2 siRNA sequences 5 and 7 from Table 7 and a scrambled control siRNA using the RNAiMAX Lipofectamine kit (Invitrogen, Carlsbad, Calif.) as previously described. Following a 24, 48, or 72 hour incubation period, cells were washed and total RNA was isolated for measuring GPC2 mRNA expression. For protein analysis, cells were fixed, immunostained using an antibody against GPC2 protein, protein expression was measured via flow cytometry. As shown, GPC2 mRNA knockdown was observed beginning at the 24 hr time point and lasted for at least 72 hours. GPC2 protein expression started to decrease at the 48 hr time point.

[7] = GIST-T1 (Gastrointestinal Stromal)

## GPC2 siRNA 3: siRNA duplex: sense CCUGCUUGGACCUCGAUAA[dT][dT] (SEQ ID NO: 207), anti-sense UUAUCGAGGUCCAAGCAGG[dT][dT] (SEQ ID NO: 208) (sense CCUGCUUGGACCUCGAUAANN; antisense UUAUCGAGGUCCAAGCAGGNN; 3' dTdT overhangs, chemistry not fully specified; listed as Homo sapiens)
GPC2 mRNA [1]; CHP212 (Neuroblastoma)
  % GPC2 knockdown: 50%
GPC2 mRNA [1]; COV362 (Ovarian Carcinoma)
  % GPC2 knockdown: 85%
GPC2 mRNA [1]; [7]
  % GPC2 knockdown: 61%
GPC2 mRNA [1]; IMR32 (Neuroblastoma)
  % GPC2 knockdown: 36%
GPC2 mRNA [1]; MCF7 (Breast)
  % GPC2 knockdown: 72%
GPC2 mRNA [1]; RH30 (Rhabdomyosarcoma)
  % GPC2 knockdown: 78%
GPC2 mRNA [1]; RH41 (Rhabdomyosarcoma)
  % GPC2 knockdown: 37%
GPC2 mRNA [1]; SKNAS (Neuroblastoma)
  % GPC2 knockdown: 25%
GPC2 mRNA [1]; SNU16 (Gastric)
  % GPC2 knockdown: 53%
GPC2 mRNA [1]; TC32 (Ewing's Sarcoma)
  % GPC2 knockdown: 69%
GPC2 mRNA [1]; TC71 (Ewing's Sarcoma)
  % GPC2 knockdown: 42%
GPC2 mRNA [1]; TOV112D (Ovarian Carcinoma)
  % GPC2 knockdown: 89%
GPC2 mRNA [1]; multiple cancer cell lines
  GPC2 knockdown across the cell lines of Table 8: GPC2 knockdown was observed in each cell line
GPC2 mRNA [2]; CHLA-90 (Neuroblastoma)
  % GPC2 knockdown: 50%
GPC2 mRNA [2]; CHLA-136 (Neuroblastoma)
  % GPC2 knockdown: 25%
GPC2 mRNA [2]; CHLA-172 (Neuroblastoma)
  % GPC2 knockdown: 5%
GPC2 mRNA [2]; CHP212 (Neuroblastoma)
  % GPC2 knockdown: 60%
GPC2 mRNA [2]; COV362 (Ovarian cancer)
  % GPC2 knockdown: 85%
GPC2 mRNA [2]; [7]
  % GPC2 knockdown: 55%
GPC2 mRNA [2]; KELLY (Neuroblastoma)
  % GPC2 knockdown: 65%
GPC2 mRNA [2]; RH30 (Rhabdomyosarcoma)
  % GPC2 knockdown: 80%
GPC2 mRNA [2]; RH41 (Rhabdomyosarcoma)
  % GPC2 knockdown: 55%
GPC2 mRNA [2]; SH-SY5Y (Neuroblastoma)
  % GPC2 knockdown: 55%
GPC2 mRNA [2]; SK-N-BE2 (Neuroblastoma)
  % GPC2 knockdown: 55%
GPC2 mRNA [2]; SKNAS (Neuroblastoma)
  % GPC2 knockdown: 40%
GPC2 mRNA [2]; SNU16 (Gastric carcinoma)
  % GPC2 knockdown: 50%
GPC2 mRNA [2]; TC32 (Ewing's sarcoma)
  % GPC2 knockdown: 70%
GPC2 mRNA [2]; TC71 (Ewing's sarcoma)
  % GPC2 knockdown: 55%
GPC2 mRNA [2]; TOV112D (Ovarian cancer)
  % GPC2 knockdown: 90%
KELLY cells [3]
  IC50: 21700 nM
RH30 cells; RH30
  Data Summary: effect of knockdown on sensitivity to cisplatin: does not increase
RH30 cells; RH30 cells transfected with the labelled siRNA, cisplatin added 24 hours post transfection, 72 hour incubation
  IC50: 2100 nM
RH41 cells
  IC50: 3200 nM
SK-N-BE2 cells
  IC50: 8000 nM
SKNAS cells [4]; SKNAS
  Data Summary: effect of knockdown on sensitivity to cisplatin: increases sensitivity to
SKNAS cells [4]; SKNAS cells transfected with the labelled siRNA, cisplatin added 24 hours post transfection, 72 hour incubation
  IC50: 20000 nM
TC32 cells; TC32
  Data Summary: effect of knockdown on sensitivity to cisplatin: does not increase
TC32 cells; TC32 cells transfected with the labelled siRNA, cisplatin added 24 hours post transfection, 72 hour incubation
  IC50: 2300 nM
TC71 cells; TC71
  Data Summary: effect of knockdown on sensitivity to cisplatin: does not increase
TC71 cells; TC71 cells transfected with the labelled siRNA, cisplatin added 24 hours post transfection, 72 hour incubation
  IC50: 1300 nM
CHLA-136 cells; CHLA-136
  Data Summary: effect of knockdown on sensitivity to etoposide: increases sensitivity to etoposide
CHLA-136 cells; CHLA-136 cells transfected with the labelled siRNA, etoposide added 24 hours post transfection, 72 hour incubation
  IC50: 170 nM
CHLA-172 cells; CHLA-172
  Data Summary: effect of knockdown on sensitivity to etoposide: increases sensitivity to etoposide
CHLA-172 cells; CHLA-172 cells transfected with the labelled siRNA, etoposide added 24 hours post transfection, 72 hour incubation
  IC50: 2000 nM
KELLY cells [5]; KELLY
  Data Summary: effect of knockdown on sensitivity to etoposide: increases sensitivity to etoposide
KELLY cells [5]; KELLY cells transfected with the labelled siRNA, etoposide added 24 hours post transfection, 72 hour incubation
  IC50: 70 nM
SKNAS cells [6]; SKNAS
  Data Summary: effect of knockdown on sensitivity to etoposide: increases sensitivity to etoposide
SKNAS cells [6]; SKNAS cells transfected with the labelled siRNA, etoposide added 24 hours post transfection, 72 hour incubation
  IC50: 40 nM

## GPC2 siRNA 7: siRNA duplex: sense CUCCUUUCUGGUUCACACA[dT][dT] (SEQ ID NO: 215), anti-sense UGUGUGAACCAGAAAGGAG[dT][dT] (SEQ ID NO: 216) (sense rCrUrCrCrUrUrUrCrUrGrGrUrUrCrArCrArCrAdTdT; antisense rUrGrUrGrUrGrArArCrCrArGrArArArGrGrArGdTdT; listed as Homo sapiens)
GPC2 protein; CHLA90 cells, at 72 hours (FIG. 5F)
  GPC2 protein expression (Mean Fluorescence (FL1) Intensity): Reduced GPC2 protein expression
GPC2 protein; CHP212, SH-SY5Y and CHLA90 neuroblastoma cell lines
  Time point at which GPC2 protein expression started to decrease: 48 h
GPC2 protein; CHP212 cells, at 48 and 72 hours (FIG. 5D)
  GPC2 protein expression (Mean Fluorescence (FL1) Intensity): Reduced GPC2 protein expression
GPC2 protein; SH-SY5Y cells, at 48 and 72 hours (FIG. 5E)
  GPC2 protein expression (Mean Fluorescence (FL1) Intensity): Reduced GPC2 protein expression
